One compound from US11872298B2, “Cosmetic use of arthrofactin” (L'OREAL, priority 2016, dated 2024) can be followed below.

In the assay the test system is genes associated with moisturization in keratinocytes. Briefly: Expression of genes associated with moisturization in keratinocytes cultivated in vitro (quantitative PCR). The class given is cell-based, human. To be noted: 0.002 mg/L and 0.01 mg/L in water. The procedure:
K266 human epidermic keratinocytes were seeded in wells (50,000 cells/well) and cultivated in a Dermalife K medium (Lifeline LL-007) for 3 days at 37° C. and 5% of CO2. At the end of incubation, the culture medium was replaced by a test medium (K Dermalife supplemented with 1.5 mM CaCl2) containing or not containing (control) the mixture of arthrofactins obtained in example 1 in the form of a powder diluted to 0.1% in water or references (retinoic acid at 0.1 μM and 1 μM, or retinol at 10 μM). The cells were then incubated for 24 hours.
In parallel, normal human keratinocytes (NHK, 01.12) were seeded in wells (50,000 cells/well) and cultivated in a COMPLETE KGM medium (KGM BULLETKIT, LONZA, CC-3111) for 3 days at 37° C. and 5% of CO2. […]
The quantification of RNA and quality control were analyzed using LabChip GX (Perkin Elmer). Reverse transcription (RT) of RNA into cDNA was carried out using the Quantitect® inverse transcription kit (QIAGEN) following the manufacturer's recommendations. […]
The expression of selected transcripts was then analyzed by quantitative PCR using a LightCycler 480 Real-Time PCR System 384-well plate system (Roche) using the SYBR® Green incorporation technique (Roche). […]

*1 amine or outer side, *2 acyl side, *3 side chain or, on linkers, in order; H or OH if unused. Where a SMILES comes first, the peptide text is derived from it. Bridges are numbered along the chain shown (N, C = ends). [ ]: non-standard residue; d: D form. X1 = CC(C)CCCCCCCCC[C@H](CC(=O)[*:1])O[*:2]

With `CC(C)CCCCCCCCC[C@@H]1CC(=O)N[C@@H](CCC(=O)O)C(=O)N[C@@H](CC(C)C)C(=O)N[C@H](CC(C)C)C(=O)N[C@@H](C(C)C)C(=O)N[C@@H](CC(=O)O)C(=O)N[C@H](CC(C)C)C(=O)N[C@@H](CC(C)C)C(=O)O1` [Sodium Surfactin] (EL[dL]VD[dL]L; linker N-C via X1), the “Expression of genes associated with moisturization in keratinocytes” value is “lower expression”.
